What all share (experiment): growth of human tumour cells (NCI), 48 h
Experiment [1] relates to CAKI-1 renal.
Experiment [2] concerns EKVX NSCLC.
Experiment [3] concerns HCC-2998 colon.
Experiment [4] deals with NCI-H460 lung.
For experiment [5], the system named is NCI-H522 lung.
Experiment [6] concerns NCI/ADR-RES ovarian.
Experiment [7] concerns OVCAR-5 ovarian.
Experiment [8] deals with SK-MEL-28 melanoma.
Experiment [9] concerns SN12C renal.
The test system of experiment [10] is T-47D breast.
For experiment [11], the system named is U251 CNS.
Experiment [12] deals with UO-31 renal.

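Cells were grown in 96-well plates and exposed to each compound for 48 hours at five concentrations; endpoints were interpolated linearly between bracketing concentrations, or set to the highest concentration if not reached. TGI: concentration producing complete growth inhibition.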 Where a SMILES comes first, the peptide text is derived from it. Bounds are passed on as bounds.

For `NCCSCc1ccccc1Cl`, the TGI in experiment [1] was > 100 µM; in experiment [2], > 100 µM; in [3] it was 38.7 µM; in experiment [4], > 100 µM; in experiment [5] it was > 100 µM; in [6] it was > 100 µM. In addition, the TGI in experiment [7], in experiment [8], in experiment [9], in experiment [10], in experiment [11] and in experiment [12] was > 100 µM in each case.
On to `Cc1sc(C)c2c1C(=O)CC2N` (configuration not stated), for which the TGI in [1] was 28.9 µM; in experiment [2], > 100 µM; in [3], 35.1 µM; in experiment [4] it was > 70.2 µM; in experiment [5], 10.9 µM; in [6], > 100 µM. For the same compound, the TGI in experiment [7] was > 100 µM; in experiment [8], > 62.5 µM; in experiment [9], > 58.6 µM; in experiment [10], > 83 µM; in [11], > 100 µM; in experiment [12], 29.5 µM.
With `Cc1nn2c(C(=O)N/N=C/c3ccc([N+](=O)[O-])cc3)c(C)nc2s1`, the TGI in experiment [1], in [2], in [3], in experiment [4], in experiment [5] and in experiment [6] was > 100 µM throughout. The TGI in [7] is > 100 µM; in experiment [8], > 100 µM; in [9] it was > 100 µM; in experiment [10] it was > 100 µM; in experiment [11], 53.5 µM; in experiment [12] it was > 100 µM.
Turning to `CCCCCCCCCCCCOc1ccc(/C=C/C2=[N+](CCCl)CCO2)cc1`, the TGI in [1] was > 100 µM; in experiment [2] it was > 100 µM; in experiment [3], > 100 µM; in [4] it was > 100 µM; in experiment [5] it was 47 µM; in experiment [6] it was > 100 µM. In addition, the TGI in experiment [7] was > 100 µM; in experiment [8] it was > 100 µM; in experiment [9], > 100 µM; in experiment [10], > 100 µM; in experiment [11], 58.4 µM; in experiment [12] it was > 100 µM.
Regarding `O=C(NC(Nc1ccc(F)cc1)(C(F)(F)F)C(F)(F)F)C(C(F)(F)F)C(F)(F)F`, the TGI is > 100 µM in [1]; > 100 µM in experiment [2]; > 100 µM in experiment [3]; > 100 µM in experiment [4]; > 89.6 µM in [5]; > 100 µM in experiment [6]. Besides, the TGI in experiment [7] is > 100 µM; in experiment [8], > 100 µM; in experiment [9], > 100 µM; in experiment [10], > 100 µM; in [11] it was > 100 µM; in [12], > 62.5 µM.
With `CC1Cc2cc(O)c(O)cc2-c2cc(O)c(O)cc2CC1C` (configuration not stated), the TGI in experiment [1] came out at 48.3 µM; in experiment [2], 96.2 µM; in experiment [3], 43.1 µM; in experiment [4] it was 42.7 µM; in [5], 49.8 µM; in experiment [6], 38.4 µM. The TGI stood at 45.6 µM in experiment [7]; 43.6 µM in experiment [8]; 49 µM in experiment [9]; 63.7 µM in experiment [10]; 32.6 µM in experiment [11]; 85.3 µM in [12].
As to `Oc1cccc2cc(Br)cnc12`, the TGI is > 100 µM in experiment [1]; 99 µM in experiment [2]; 96.9 µM in experiment [3]; > 70.8 µM in [4]; 9.18 µM in experiment [5]; 20.6 µM in experiment [6]. For the same compound, the TGI in experiment [7] was > 100 µM; in [8] it was > 100 µM; in experiment [9] it was > 100 µM; in experiment [10] it was > 25.7 µM; in [11], > 100 µM; in experiment [12], > 76.1 µM.
As for `CN(C)c1ccc(-c2ccc(N(C)C)c3n[se]nc23)c2n[se]nc12`, the TGI in [1], in experiment [2], in [3], in experiment [4], in experiment [5] and in experiment [6] was > 100 µM in each case. For the same compound, the TGI in [7], in [8], in experiment [9], in experiment [10], in [11] and in experiment [12] was > 100 µM throughout.
For `N#Cc1c(Cl)nc2ccccc2c1N=[N+]=[N-]`, the TGI in [1] came to 3.12 µM; in [2], 5.53 µM; in experiment [3], 14.4 µM; in experiment [4] it was 21.4 µM; in experiment [5], 4.62 µM; in [6], 37.3 µM. Besides, the TGI in experiment [7] worked out at 15.2 µM; in [8] it was 9.11 µM; in experiment [9] it was 10.7 µM; in [10], 5.83 µM; in experiment [11], 12.5 µM; in experiment [12], 9.4 µM.
With `CN1C=Cc2nccc3cc4c(c1c23)OCO4`, the TGI is 5.77 µM in experiment [1]; 13.8 µM in experiment [2]; 30.4 µM in [3]; > 33.1 µM in experiment [4]; 8.2 µM in experiment [5]; 52.6 µM in [6]. The TGI in experiment [7] is 66.3 µM; in [8], 39.2 µM; in experiment [9] it was 30.2 µM; in experiment [10] it was > 27.1 µM; in experiment [11], 32.4 µM; in [12], 34.9 µM.
With `CC1(C)C2CC3C4CC5(Nc6ccccc6C5N41)[C@]3(C)CC2=O` (some centres not stated), the TGI in [1], in experiment [2], in experiment [3], in experiment [4], in experiment [5] and in experiment [6] was > 50 µM each time. Moreover, the TGI in experiment [7] is > 50 µM; in [8] it was > 50 µM; in [9] it was > 50 µM; in [10], 33.3 µM; in experiment [11], > 50 µM; in [12], > 50 µM.
With `COC(=O)[C@]1(c2cc3ccccc3[nH]2)CC2CN(CC(=O)N(C)OC)C1CC2(OC)OC` (some centres not stated), the TGI in experiment [1] is 56 µM; in [2], > 100 µM; in experiment [3], > 100 µM; in experiment [4], > 100 µM; in experiment [5] it was 44.6 µM; in experiment [6], > 100 µM. Further, the TGI is > 100 µM in experiment [7]; > 100 µM in experiment [8]; > 100 µM in [9]; 57.1 µM in [10]; 30.7 µM in experiment [11]; > 100 µM in experiment [12].
In the case of `O=C1c2ccccc2CC12Cc1ccccc1C2`, the TGI in experiment [1] was > 100 µM; in experiment [2], 78.3 µM; in [3], 70.3 µM; in [4], > 100 µM; in experiment [5] it was > 100 µM; in experiment [6], 89.1 µM. Also, the TGI in [7], in experiment [8], in [9], in experiment [10], in [11] and in experiment [12] was > 100 µM in each case.
With `CC(C)CC(NC(=O)C(Cc1ccccc1)NC(=O)C(Cc1c[nH]c2ccccc12)NC(=O)CNC(=O)C(N)Cc1ccc(O)cc1)C(=O)O` (configuration not stated) (H-YGWFL-OH; configuration not given here), the TGI in experiment [1] is > 100 µM; in experiment [2], 73.6 µM; in [3], 60.2 µM; in experiment [4] it was > 100 µM; in [5], 95.6 µM; in experiment [6], > 100 µM. The TGI in experiment [7] was > 100 µM; in [8] it was > 100 µM; in experiment [9] it was > 100 µM; in experiment [10], 72.9 µM; in experiment [11], > 100 µM; in experiment [12], > 100 µM.
As to `O=C(CC(=O)N1N=C(N(c2ccccc2)c2ccccc2)CC1c1ccccc1)Nc1ccc(Cl)cc1` (configuration not stated), the TGI in experiment [1], in experiment [2], in experiment [3], in experiment [4], in experiment [5] and in experiment [6] was > 100 µM in each case. Moreover, the TGI in experiment [7], in [8], in experiment [9], in [10], in [11] and in [12] was > 100 µM each time.
With `COc1ccc(/C=C2\Sc3nnc(CNc4ccc(Cl)cc4)n3N=C2c2cc(F)c(Cl)cc2Cl)cc1OC`, the TGI was 80.5 µM in [1]; > 100 µM in experiment [2]; > 100 µM in experiment [3]; > 100 µM in [4]; > 100 µM in [5]; 52.3 µM in experiment [6]. The TGI in [7], in [8], in experiment [10], in [11] and in experiment [12] was > 100 µM in each case.
As for `C(=N\OCCc1ccccc1)/c1cccnc1`, the TGI in experiment [2], in experiment [3], in [4], in experiment [5], in experiment [6] and in experiment [7] was > 100 µM throughout. The TGI in experiment [8], in experiment [9], in experiment [10], in [11] and in experiment [12] was > 100 µM in each case.
On to `COC(=O)C1=C(C(=O)OC)SC(=C2S[C@@H]3[C@@H]4C[C@H]([C@@H]3S2)[C@H]2C(=O)OC(=O)[C@@H]42)S1`, for which the TGI in experiment [1], in [2], in experiment [3], in [5], in experiment [6] and in experiment [7] was > 100 µM in each case. Moreover, the TGI in [8], in experiment [9], in experiment [10], in experiment [11] and in experiment [12] was > 100 µM throughout.
Regarding `O=C(O)C1(Cc2ccc3c(c2)CCC3)Cc2ccccc2C1`, the TGI in experiment [2], in [3], in experiment [4], in [5], in experiment [6] and in experiment [7] was > 100 µM in each case. For the same compound, the TGI in experiment [8], in [9], in experiment [10], in [11] and in experiment [12] was > 100 µM each time.
In the case of `O/N=C(\CC(O)(C(F)(F)F)C(F)(F)F)c1cccc(Cl)c1`, the TGI in [1] is 68.7 µM; in experiment [2], 67.6 µM; in experiment [3], > 100 µM; in experiment [4], > 100 µM; in experiment [5], > 100 µM; in experiment [6], > 100 µM. In addition, the TGI is > 100 µM in [7], > 100 µM in experiment [8], 79.7 µM in [10] and 49 µM in [11].
As for `C=CC(Br)(CBr)CCC(Br)C(C)(C)Cl` (configuration not stated), the TGI in [2] stood at 26.8 µM; in experiment [3], 12.8 µM; in experiment [4], 6.06 µM; in experiment [5], 2.79 µM; in experiment [6] it was 18.6 µM; in experiment [7], 14.5 µM. Also, the TGI in experiment [8] turned out to be 6 µM; in experiment [9], 16.5 µM; in experiment [10], 3.95 µM; in experiment [11], 2.92 µM; in experiment [12] it was 3.97 µM.
With `CCOC(=O)c1c(-c2ccc(Br)cc2)ccn1C`, the TGI in experiment [1], in experiment [2], in experiment [3], in experiment [4], in experiment [5] and in experiment [6] was > 10 µM throughout. Besides, the TGI in [7], in experiment [8], in [9], in experiment [10] and in [11] was > 10 µM in each case.
`O=C(N/N=C/c1ccccc1O)c1ccccc1Nc1ccccc1C(=O)N/N=C/c1ccccc1O`: the TGI was > 100 µM in experiment [1]; > 100 µM in experiment [2]; > 100 µM in [3]; > 100 µM in [4]; > 100 µM in experiment [5]; 5.44 µM in experiment [6]. Further, the TGI in [7] is > 100 µM; in experiment [8], 0.865 µM; in [10], > 100 µM; in experiment [11], > 100 µM; in experiment [12], > 100 µM.

Values taken from PubChem BioAssay (NCI).
